Measurements taken from publication PMC6926482, “LCO Receptors Involved in Arbuscular Mycorrhiza Are Functional for Rhizobia Perception in Legumes” (Current Biology, 2019).

Columns and labels:
[1] = biological target: T1, SlLYK10c-YFP; assay: radioligand competition on membrane fractions; type: binding, Solanum lycopersicum; conditions: competition with LCO-V(C18:1,NMe,35S) 1-2 nM
T1 construct: gene LYK10; SlLYK10 extracellular region fused to TM/ICR of Medicago truncatula NFP, YFP kept (about 102 kDa with 6 predicted N-glycans); expressed in Nicotiana benthamiana leaves, membrane fraction; with Serine/threonine receptor-like kinase NFP (Medicago truncatula; transmembrane and intracellular region fused to the SlLYK10 extracellular region)

[2] = biological target: T2, PhLYK10-YFP; assay: radioligand competition on membrane fractions; type: binding, Petunia hybrida; conditions: competition with LCO-V(C18:1,NMe,35S) 1-2 nM; competitor tested at 1 μM only; pH 6
T2 construct: gene LYK10; expressed in Nicotiana benthamiana leaves, membrane fraction

[3] = 25 mM Na-cacodylate pH 6, 1 mM CaCl2, 1 mM MgCl2, n = 3
[4] = competitor tested at 1 μM only, pH 6

Ki [1, 3] [nM] | Ki [1, 4] [nM] | Ki [2] [nM] | Structure (SMILES)
354 ± 60 | – | – | CCCCCCCCCCCCCCCC(=O)N[C@H]1[C@H](O[C@H]2[C@H](O)[C@@H](NC(C)=O)[C@H](O[C@H]3[C@H](O)[C@@H](NC(C)=O)[C@H](O[C@H]4[C@H](O)[C@@H](NC(C)=O)C(O)O[C@@H]4CO)O[C@@H]3CO)O[C@@H]2CO)O[C@H](CO)[C@@H](O)[C@@H]1O (stereo partly drawn) [LCO-IV(C16:0)]
192 ± 52 | – | – | CCCCCCCCCCCCCCCC(=O)N[C@H]1[C@H](O[C@H]2[C@H](O)[C@@H](NC(C)=O)[C@H](O[C@H]3[C@H](O)[C@@H](NC(C)=O)[C@H](O[C@H]4[C@H](O)[C@@H](NC(C)=O)C(O)O[C@@H]4COS(=O)(=O)O)O[C@@H]3CO)O[C@@H]2CO)O[C@H](CO)[C@@H](O)[C@@H]1O (stereo partly drawn) [LCO-IV(C16:0,S)]
– | > 1000 | > 1000 | CC(=O)N[C@H]1[C@H](O[C@H]2[C@H](O)[C@@H](NC(C)=O)[C@H](O[C@H]3[C@H](O)[C@@H](NC(C)=O)[C@H](O[C@H]4[C@H](O)[C@@H](NC(C)=O)C(O)O[C@@H]4CO)O[C@@H]3CO)O[C@@H]2CO)O[C@H](CO)[C@@H](O[C@@H]2O[C@H](CO)[C@@H](O[C@@H]3O[C@H](CO)[C@@H](O[C@@H]4O[C@H](CO)[C@@H](O[C@@H]5O[C@H](CO)[C@@H](O)[C@H](O)[C@H]5NC(C)=O)[C@H](O)[C@H]4NC(C)=O)[C@H](O)[C@H]3NC(C)=O)[C@H](O)[C@H]2NC(C)=O)[C@@H]1O (stereo partly drawn) [CO8]
– | > 1000 | > 1000 | CC(=O)N[C@H]1[C@H](O[C@H]2[C@H](O)[C@@H](NC(C)=O)C(O)O[C@@H]2CO)O[C@H](CO)[C@@H](O[C@@H]2O[C@H](CO)[C@@H](O[C@@H]3O[C@H](CO)[C@@H](O)[C@H](O)[C@H]3NC(C)=O)[C@H](O)[C@H]2NC(C)=O)[C@@H]1O (stereo partly drawn) [CO4]
